{
  "source": "BindingDB's records for patent US10377770",
  "about": "(Novartis, 2019)",
  "data": [
    {"target": "RAF proto-oncogene serine/threonine-protein kinase [Y340E,Y341E] (Human, UniProt P04049, Y340E/Y341E)", "sequence (P04049 whole entry Y340E/Y341E)": "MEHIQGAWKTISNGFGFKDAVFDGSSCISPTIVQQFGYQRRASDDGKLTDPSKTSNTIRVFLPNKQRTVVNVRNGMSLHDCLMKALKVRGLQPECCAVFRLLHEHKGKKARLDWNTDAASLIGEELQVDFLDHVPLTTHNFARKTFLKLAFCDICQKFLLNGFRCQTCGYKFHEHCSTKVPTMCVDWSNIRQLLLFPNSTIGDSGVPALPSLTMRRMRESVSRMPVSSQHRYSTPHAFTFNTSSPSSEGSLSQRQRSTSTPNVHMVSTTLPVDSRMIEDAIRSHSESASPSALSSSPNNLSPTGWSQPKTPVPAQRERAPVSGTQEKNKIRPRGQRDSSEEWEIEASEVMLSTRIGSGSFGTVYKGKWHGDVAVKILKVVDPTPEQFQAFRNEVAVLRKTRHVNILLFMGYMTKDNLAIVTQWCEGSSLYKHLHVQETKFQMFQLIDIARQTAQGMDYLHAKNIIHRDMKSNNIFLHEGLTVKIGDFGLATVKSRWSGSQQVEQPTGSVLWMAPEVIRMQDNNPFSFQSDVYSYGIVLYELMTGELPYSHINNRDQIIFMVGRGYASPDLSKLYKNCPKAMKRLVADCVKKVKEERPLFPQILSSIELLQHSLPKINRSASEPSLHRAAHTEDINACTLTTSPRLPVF", "assay": "Biological Assays", "source_text": "The activity of a compound according to the present invention can be assessed by well-known in vitro & in vivo methods. […] CRAF cDNA was subcloned as full length protein, with Y340E and Y341E activating mutations, into a baculovirus expression vector for Sf9 insect cell expression. h14-3-3 zeta cDNA was subcloned into a baculovirus expression vector for SF9 insect cell expression. Sf9 cells co-expressing both proteins were lysed and subjected to immobilized nickel chromatography and eluted with Imidazole. A second column (StrepII binding column) was used and eluted with desthiobiotin. Protein Tags were removed using Prescission enzyme and the protein was further purified using a flowthrough step to remove tags.C-Raf TR refers to a truncated C-Raf protein, a Δ1-324 deletion mutant. C-Raf FL refers to the full-length C-Raf protein.Full length MEK1 with an inactivating K97R ATP binding site mutation is utilized as a RAF substrate. The MEK1 cDNA was subcloned with an N-terminal (his)6 tag into a vector for E. Coli expression. The MEK1 substrate was purified from E. Coli lysate by nickel affinity chromatography followed by anion exchange. The final MEK1 preparation was biotinylated (Pierce EZ-Link Sulfo-NHS-LC-Biotin) and concentrated.Assay Materials: Assay buffer is 50 mM Tris, pH 7.5, 15 mM MgCl2, 0.01% Bovine Serum Albumin (BSA) and 1 mM dithiothreitol (DTT); Stop buffer is 60 mM ethylenediaminetetraacetic acid (EDTA) and 0.01% Tween 20; b-Raf (V600E), active; biotinylated Mek, kinase dead; Alpha Screen detection kit (available from PerkinElmer , #6760617R); Anti phospho-MEK1/2 (available from Cell Signaling Technology, Inc. #9121); 384 well low volume assay plates (White Greiner plates).Assay conditions: b-Raf (V600E) approximately 4 pM; c-Raf approximately 4 nM; biotinylated Mek, kinase dead approximately 10 nM; ATP 10 μM for BRAF (V600E) and 1 μM for CRAF; Pre-incubation time with compounds 60 minutes at room temperature; Reaction time 1 or 3 hours at room temperature.Assay protocol: Raf and biotinylated Mek (kinase dead) were combined at 2× final concentrations in assay buffer (50 mM Tris, pH 7.5, 15 mM MgCl2, 0.01% BSA and 1 mM DTT) and dispensed […] per well in assay plates (Greiner white 384 well assay plates #781207) containing […] of 40× of a Raf kinase inhibitor test compound diluted in 100% DMSO. The plate was incubated for 60 minutes at room temperature. The Raf kinase activity reaction was started by the addition of […] per well of 2×ATP diluted in assay buffer. After 3 hours (b-Raf(V600E)) or 1 hour (c-Raf). The reactions were stopped and the phosphorylated product was measured using a rabbit anti-p-MEK (Cell Signaling, #9121) antibody and the Alpha Screen IgG (ProteinA) detection Kit (PerkinElmer #6760617R), by the addition of […] to the well of a mixture of the antibody (1:2000 dilution) and detection beads (1:2000 dilution of both beads) in Stop/bead buffer (25 mM EDTA, 50 mM Tris, pH 7.5, 0.01% Tween20). The additions were carried out under dark conditions to protect the detection beads from light. A lid was placed on top of the plate and incubated for 1 hour at room temperature, after which the luminescence was read on a PerkinElmer Envision instrument.", "units": {"IC50": "nM"}, "values": [
      {"smiles": "Cc1ccc(NC(=O)c2ccnc(C(F)(F)F)c2)cc1-c1cnc2c(c1)N1CCOCC1C1(COC1)C2", "note": "(racemic) [US10377770, Example 153]", "IC50": 0.005},
      {"smiles": "CCN1C(=O)[C@@H]2COCCN2c2cc(-c3cc(NC(=O)c4ccnc(C(F)(F)F)c4)ccc3C)nnc21", "note": "[US10377770, Example 133]", "IC50": 0.011},
      {"smiles": "CCN1C(=O)[C@H]2COCCN2c2cc(-c3cc(NC(=O)c4ccnc(C(F)(F)F)c4)ccc3C)nnc21", "note": "[US10377770, Example 134]", "IC50": 0.016},
      {"smiles": "CCN1C(=O)[C@@H]2COCC[C@H]2c2cc(-c3cc(NC(=O)c4cnnc(C(F)(F)F)c4)ccc3C)cnc21", "note": "[US10377770, Example 257]", "IC50": "< 0.1"},
      {"smiles": "Cc1ccc(NC(=O)c2ccnc(C(F)(F)F)c2)cc1-c1cnc2c(c1)[C@@H]1CCOC[C@H]1C(=O)N2CCO", "note": "[US10377770, Example 258]", "IC50": "< 0.1"},
      {"smiles": "Cc1ccc(NC(=O)c2ccnc(C(C)(F)F)c2)cc1-c1cnc2c(c1)[C@@H]1CCOC[C@H]1C(=O)N2CCO", "note": "[US10377770, Example 267]", "IC50": "< 0.1"},
      {"smiles": "Cc1ccc(NC(=O)c2ccnc(C(F)(F)F)c2)cc1-c1cnc2c(c1)C1CCOCCC1C(=O)N2CCO", "note": "(centres undefined) [US10377770, Example 284]", "IC50": "< 0.1"},
      {"smiles": "Cc1ccc(NC(=O)c2ccnc(C(C)(F)F)c2)cc1-c1cnc2c(c1)C1CCOCCC1C(=O)N2CCO", "note": "(centres undefined) [US10377770, Example 286]", "IC50": "< 0.1"},
      {"smiles": "CCN1C(=O)OC2COCCC2c2cc(-c3cc(NC(=O)c4ccnc(C(F)(F)F)c4)ccc3C)cnc21", "note": "(centres undefined) [US10377770, Example 297]", "IC50": 0.9},
      {"smiles": "CCN1C(=O)OC2COCCC2c2cc(-c3cc(NC(=O)c4cnnc(C(F)(F)F)c4)ccc3C)cnc21", "note": "(centres undefined) [US10377770, Example 301]", "IC50": "< 0.1"},
      {"smiles": "Cc1ccc(NC(=O)c2ccnc(C(F)(F)F)c2)cc1-c1cnc2c(c1)N1CCOC[C@H]1CC(=O)N2CCO", "note": "[US10377770, Example 333]", "IC50": "< 0.1"},
      {"smiles": "Cc1ccc(NC(=O)c2ccnc(C(F)(F)F)n2)cc1-c1ccc2c(c1)N1CCOC[C@H]1[C@](F)(CO)C2", "note": "[US10377770, Example 388]", "IC50": 0.4},
      {"smiles": "Cc1ccc(NC(=O)c2cccc(C(F)(F)F)n2)cc1-c1ccc2c(c1)N1CCOC[C@H]1[C@](F)(CO)C2", "note": "[US10377770, Example 389]", "IC50": 0.5},
      {"smiles": "Cc1ccc(NC(=O)c2ccnc(C(F)(F)F)c2)cc1-c1ccc2c(c1)N1CCOC[C@@H]1[C@@](CO)(CF)C2", "note": "[US10377770, Example 405]", "IC50": 0.2}
    ]}
  ]
}
